# pEC50: −log10 of the molar value.
# Target: T1, Solute carrier family 12 member 5 (Homo sapiens, UniProt Q9H2X9)
# T1 sequence (Q9H2X9 whole entry): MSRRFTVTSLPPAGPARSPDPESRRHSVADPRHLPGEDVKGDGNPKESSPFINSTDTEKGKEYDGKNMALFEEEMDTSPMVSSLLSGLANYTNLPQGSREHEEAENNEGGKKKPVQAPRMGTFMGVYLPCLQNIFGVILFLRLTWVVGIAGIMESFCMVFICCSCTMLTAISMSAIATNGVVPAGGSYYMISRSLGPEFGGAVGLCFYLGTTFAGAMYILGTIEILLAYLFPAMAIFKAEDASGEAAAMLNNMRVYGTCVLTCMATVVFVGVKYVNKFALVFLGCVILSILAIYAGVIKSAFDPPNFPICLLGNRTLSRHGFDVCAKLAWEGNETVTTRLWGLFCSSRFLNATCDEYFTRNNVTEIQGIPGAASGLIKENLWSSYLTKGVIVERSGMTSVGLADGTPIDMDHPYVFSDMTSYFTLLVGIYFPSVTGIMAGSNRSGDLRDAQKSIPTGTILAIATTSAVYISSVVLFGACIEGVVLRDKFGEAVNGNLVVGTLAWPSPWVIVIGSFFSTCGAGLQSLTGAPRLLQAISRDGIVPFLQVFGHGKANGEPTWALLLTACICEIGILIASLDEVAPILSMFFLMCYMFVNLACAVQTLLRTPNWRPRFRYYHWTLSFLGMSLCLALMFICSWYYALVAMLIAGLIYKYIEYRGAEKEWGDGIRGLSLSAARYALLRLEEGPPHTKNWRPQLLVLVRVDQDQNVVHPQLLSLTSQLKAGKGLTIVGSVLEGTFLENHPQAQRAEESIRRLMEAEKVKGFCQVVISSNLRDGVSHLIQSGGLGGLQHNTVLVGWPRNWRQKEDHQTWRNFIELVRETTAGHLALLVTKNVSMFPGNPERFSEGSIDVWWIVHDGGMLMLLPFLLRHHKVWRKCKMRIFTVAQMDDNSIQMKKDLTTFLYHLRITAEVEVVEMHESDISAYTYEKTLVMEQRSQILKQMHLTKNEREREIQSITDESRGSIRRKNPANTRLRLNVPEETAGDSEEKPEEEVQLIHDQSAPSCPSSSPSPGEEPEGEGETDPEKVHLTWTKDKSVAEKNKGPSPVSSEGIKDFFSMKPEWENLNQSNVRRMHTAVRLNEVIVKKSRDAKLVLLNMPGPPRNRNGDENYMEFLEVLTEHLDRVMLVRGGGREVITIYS
# Assay: KCC2 modulator potency by thallium flux, dose response, cell-based, HEK293 KCC2, FluoZin-2 fluorescence (AID 1736)
# Conditions: not given
row,Compound,pEC50
1,"COc1ccc(-n2cnnc2SCC(=O)Nc2cc(S(=O)(=O)N3CCCCC3)ccc2C)cc1 [2-[[4-(4-methoxyphenyl)-1,2,4-triazol-3-yl]sulfanyl]-N-(2-methyl-5-piperidin-1-ylsulfonyl-phenyl)ethanamide]",5.33
2,CC(C)(C)NC(=O)C(c1cccs1)N(CC1CCCO1)C(=O)c1ccc(-c2ccccc2)[nH]1 (configuration not stated) [N-[2-(tert-butylamino)-2-oxo-1-thiophen-2-ylethyl]-N-(2-oxolanylmethyl)-5-phenyl-1H-pyrrole-2-carboxamide],5.71
3,"O=S(=O)(NCc1ccccc1)c1ccc(Cl)c(S(=O)(=O)NCc2ccccc2)c1 [1-N,3-N-dibenzyl-4-chlorobenzene-1,3-disulfonamide]",5.68
4,"O=C(C1CCN(c2nnc(-n3cccc3)s2)CC1)N1CCc2ccccc2C1 [3,4-dihydro-1H-isoquinolin-2-yl-[1-(5-pyrrol-1-yl-1,3,4-thiadiazol-2-yl)-4-piperidyl]methanone]",4.97
5,O=C(NCC1CCCN(C(=O)c2cccnc2)C1)c1ccc(-c2ccccc2)cc1 (configuration not stated) [4-phenyl-N-[(1-pyridin-3-ylcarbonylpiperidin-3-yl)methyl]benzamide],6.18
6,O=c1[nH]c2c(s1)C(c1ccccc1)c1c(c(O)n(-c3ccccc3)c1O)S2 (configuration not stated),6.99
7,Cc1nonc1NC(=O)CSc1ccc(-c2ccccc2)nn1 [MLS000074514],5.95
8,"Fc1cccc(F)c1C=NNC(=S)Nc1cccnc1 [1-[(2,6-difluorobenzylidene)amino]-3-(3-pyridyl)thiourea]",5.23
9,"O=C(O)CC/C(=C\c1ccc(N2CCCC2)c([N+](=O)[O-])c1)c1nc2ccccc2s1 [(E)-4-(1,3-benzothiazol-2-yl)-5-(3-nitro-4-pyrrolidin-1-yl-phenyl)pent-4-enoic acid]",4.53
10,"COc1ccc(S(=O)(=O)N(C)CC(=O)N2CCN(Cc3ccccc3)CC2)cc1C [4-methoxy-N,3-dimethyl-N-[2-oxidanylidene-2-[4-(phenylmethyl)piperazin-1-yl]ethyl]benzenesulfonamide]",5.45
11,O=C(NCC1CCCO1)C(c1cccs1)N(C(=O)c1ccc(-c2ccccc2)[nH]1)C1CCCC1 (configuration not stated) [5-Phenyl-1H-pyrrole-2-carboxylic acid cyclopentyl-{[(tetrahydro-furan-2-ylmethyl)-carbamoyl]-thiophen-2-yl-methyl}-amide],5.25
12,CCN(CC)c1ccc2c(C)c(-c3ccc(N)cc3)c(=O)oc2c1 [3-(4-aminophenyl)-7-(diethylamino)-4-methyl-1-benzopyran-2-one],5.97
13,O=S(=O)(NCCc1ccccc1F)c1cccc(S(=O)(=O)N2CCOCC2)c1 [MLS000076090],2.39
14,CC(=O)NCCC(=O)N1CCCC(CNC(=O)c2ccc(-c3ccccc3)cc2)C1 (configuration not stated) [MLS000733794],5.09
15,"Cc1ccc(/C=C2\SC(=S)N(c3c(C)n(C)n(-c4ccccc4)c3=O)C2=O)cc1 [3-(1,5-dimethyl-3-oxo-2-phenyl-2,3-dihydro-1H-pyrazol-4-yl)-5-(4-methylbenzylidene)-2-thioxo-1,3-thiazolidin-4-one]",5.93
16,Cc1ccc(-c2n[nH]c(=S)n2NC=CCc2ccccc2[N+](=O)[O-])cc1,5.74
17,"O=c1c2ccccc2c(-c2nnc(S)o2)nn1Cc1ccccc1 [2-(phenylmethyl)-4-(2-sulfanylidene-3H-1,3,4-oxadiazol-5-yl)-1-phthalazinone]",5.49

# Same assay, conditions: inactive by the depositor's call
row,Compound,pEC50
1,CC(C(=O)N=c1sc2ccccc2n1C)N1C(=O)C2CC=CCC2C1=O (configuration not stated),3.92
2,O=C(NCCSCc1ccccc1)c1cc(S(=O)(=O)N2CCOCC2)ccc1F [2-fluoranyl-5-morpholin-4-ylsulfonyl-N-[2-(phenylmethylsulfanyl)ethyl]benzamide],4.61
3,"O=C(NC(=S)Nc1ccc2c(c1)OCO2)c1ccc(Cl)cc1 [1-Benzo[1,3]dioxol-5-yl-3-(4-chloro-benzoyl)-thiourea]",7.13
4,"CN1C(=CC(=O)C2CCC2)Sc2ccccc21 [(2Z)-1-cyclobutyl-2-(3-methyl-1,3-benzothiazol-2-ylidene)ethanone]",3.77
5,CN1C(C(=O)NCc2ccccc2)CC2Cn3c(nc4cc(Cl)c(Cl)cc43)C21 (configuration not stated) [MLS000877509],4.19
